# Results reported in US10316035B2, “Triazolopyridine inhibitors of myeloperoxidase” (BRISTOL-MYERS SQUIBB COMPANY, priority 2015, dated 2019).
# Counter-ions that a name gives are not always drawn.
# Target: T1, myeloperoxidase (MPO) (Homo sapiens, UniProt P05164)
# T1 sequence (P05164 49-745): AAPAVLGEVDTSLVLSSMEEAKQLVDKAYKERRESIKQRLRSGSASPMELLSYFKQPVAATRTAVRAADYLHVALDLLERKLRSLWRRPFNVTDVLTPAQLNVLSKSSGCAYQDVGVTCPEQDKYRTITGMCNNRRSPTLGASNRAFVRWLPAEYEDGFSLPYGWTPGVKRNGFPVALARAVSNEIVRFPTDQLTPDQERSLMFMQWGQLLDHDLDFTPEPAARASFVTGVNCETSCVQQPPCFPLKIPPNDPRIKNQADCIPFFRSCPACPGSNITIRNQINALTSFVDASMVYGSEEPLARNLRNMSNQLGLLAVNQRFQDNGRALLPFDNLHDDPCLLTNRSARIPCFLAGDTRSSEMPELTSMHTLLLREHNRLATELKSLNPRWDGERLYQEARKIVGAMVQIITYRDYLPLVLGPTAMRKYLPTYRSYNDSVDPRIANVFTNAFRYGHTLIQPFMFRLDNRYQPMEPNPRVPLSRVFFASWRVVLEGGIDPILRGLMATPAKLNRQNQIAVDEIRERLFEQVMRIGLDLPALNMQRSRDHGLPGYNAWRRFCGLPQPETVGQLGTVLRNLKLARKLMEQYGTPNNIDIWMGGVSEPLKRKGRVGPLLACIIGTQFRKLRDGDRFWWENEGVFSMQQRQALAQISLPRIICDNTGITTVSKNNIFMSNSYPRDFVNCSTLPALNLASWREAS
# Test: MPO peroxidation assay (Amplex Red assay)
# Format: biochemical
# Details: not given
# Summary of the method: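 MPO (200 pM) with 40 nM H2O2 was preincubated 10 min at room temperature with inhibitor in 100 mM KPi pH 7.4. A mix of Amplex Red (200 μM) and H2O2 (10 mM) was then added and resorufin fluorescence read kinetically for 15 min. Slopes over 180–540 s gave % inhibition and IC50 via a four-parameter Hill fit.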
row,IC50 [nM],SMILES
1,1 to 100,"Nc1cc(OCc2cccc(Cl)c2)c2nn[nH]c2n1 [Example 10, 7-(3-Chlorobenzyloxy)-3H-[1,2,3]triazolo[4,5-b]pyridin-5-amine]"
2,1 to 100,"Cn1ccc(-c2cccc(COc3cc(N)nc4[nH]nnc34)c2)n1 [Example 5, 7-(3-(1-Methyl-1H-pyrazol-3-yl)benzyloxy)-3H-[1,2,3]triazolo[4,5-b]pyridin-5-amine]"

# Same assay, conditions: MPO peroxidation, potency range class; read-out: Amplex Red IC50
row,IC50 [nM],SMILES
1,101 to 999,"Nc1cc(OCc2cccc(-c3ccc(Cl)cc3)c2)c2nn[nH]c2n1 [Example 97, 7-((4′-Chlorobiphenyl-3-yl)methoxy)-3H-[1,2,3]triazolo[4,5-b]pyridin-5-amine]"
2,1 to 100,"N#Cc1ccc(-c2ccc(COc3cc(N)nc4[nH]nnc34)c(OC(F)(F)F)c2)cn1 [Example 292, 5-(4-(((5-amino-3H-[1,2,3]triazolo[4,5-b]pyridin-7-yl)oxy)methyl)-3-(trifluoromethoxy)phenyl)picolinonitrile]"
3,1 to 100,"Nc1cc(OCc2cccc(-c3ccc(-c4ccn[nH]4)cc3)c2)c2nn[nH]c2n1 [Example 98, 7-((4′-(1H-Pyrazol-5-yl)biphenyl-3-yl)methoxy)-3H-[1,2,3]triazolo[4,5-b]pyridin-5-amine]"
4,1 to 100,"COc1ccc(OC(F)(F)F)cc1COc1cc(N)nc2[nH]nnc12 [Example 35, 7-(2-Methoxy-5-(trifluoromethoxy)benzyloxy)-3H-[1,2,3]triazolo[4,5-b]pyridin-5-amine]"
5,1 to 100,"Nc1cc(OCc2ccc(-n3cnc(-c4ccccc4)c3)cc2OC(F)(F)F)c2nn[nH]c2n1 [Example 260, 7-((4-(4-phenyl-1H-imidazol-1-yl)-2-(trifluoromethoxy)benzyl)oxy)-3H-[1,2,3] triazolo[4,5-b]pyridin-5-amine]"
6,101 to 999,"CNS(=O)(=O)c1ccccc1COc1cc(N)nc2[nH]nnc12 [Example 229, 2-(((5-Amino-3H-[1,2,3]triazolo[4,5-b]pyridin-7-yl)oxy)methyl)-N-methylbenzenesulfonamide, TFA]"
7,101 to 999,"Nc1cc(OCc2cc(C(=O)N(CCO)Cc3ccccc3)ccc2Cl)c2nn[nH]c2n1 [Example 183, 3-((5-amino-3H-[1,2,3]triazolo [4,5-b]pyridin-7-yloxy)methyl)-N-benzyl-4-chloro-N-(2-hydroxyethyl)benzamide]"
8,101 to 999,"Nc1cc(OCc2cc(C(=O)N3CCC(O)CC3)ccc2F)c2nn[nH]c2n1 [Example 153, (3-((5-amino-3H-[1,2,3]triazolo[4,5-b]pyridin-7-yloxy)methyl)-4-fluorophenyl)(4-hydroxypiperidin-1-yl)methanone]"
9,1 to 100,"Nc1cc(OCc2ccc(C(=O)NCc3ccccc3Cl)cc2Cl)c2nn[nH]c2n1 [Example 214, 4-((5-amino-3H-[1,2,3]triazolo[4,5-b]pyridin-7-yloxy)methyl)-3-chloro-N-(2-chlorobenzyl)benzamide]"
10,1 to 100,"Nc1cc(OCc2ccccc2OCc2ccccc2)c2nn[nH]c2n1 [Example 20, 7-(2-(Benzyloxy)benzyloxy)-3H-[1,2,3]triazolo[4,5-b]pyridin-5-amine]"
11,101 to 999,"NC(=O)c1cccc(COc2cc(N)nc3[nH]nnc23)c1Cl [Example 33, 3-((5-Amino-3H-[1,2,3]triazolo[4,5-b]pyridin-7-yloxy)methyl)-2-chlorobenzamide]"
12,1 to 100,"Nc1ccc(-c2cc(F)c(COc3cc(N)nc4[nH]nnc34)c(F)c2)cn1 [Example 337, 7-((4-(6-aminopyridin-3-yl)-2,6-difluorobenzyl)oxy)-3H-[1,2,3]triazolo[4,5-b] pyridin-5-amine]"
13,101 to 999,"Nc1cc(OCc2ccc(-c3ccc(OC(F)(F)F)cc3)cc2)c2nn[nH]c2n1 [Example 119, 7-((4′-(Trifluoromethoxy)biphenyl-4-yl)methoxy)-3H-[1,2,3]triazolo[4,5-b]pyridin-5-amine]"
14,101 to 999,"COC(=O)c1cn(-c2ccc(COc3cc(N)nc4[nH]nnc34)c(OC(F)(F)F)c2)cn1 [Example 264, methyl 1-(4-(((5-amino-3H-[1,2,3]triazolo[4,5-b]pyridin-7-yl)oxy)methyl)-3-(trifluoromethoxy)phenyl)-1H-imidazole-4-carboxylate]"
15,1 to 100,"Nc1cc(OCc2cccc(-c3cnn(Cc4ccccc4)c3)c2)c2nn[nH]c2n1 [Example 74, 7-(3-(1-Benzyl-1H-pyrazol-4-yl)benzyloxy)-3H-[1,2,3]triazolo[4,5-b]pyridin-5-amine]"
16,1 to 100,"COc1ccc(-c2ccc(COc3cc(N)nc4[nH]nnc34)c(C#N)c2)cn1 [Example 310, 2-(((5-amino-3H-[1,2,3]triazolo[4,5-b]pyridin-7-yl)oxy)methyl)-5-(6-methoxypyridin-3-yl)benzonitrile]"

row,IC50 [nM],SMILES
1,101 to 999,"COc1ncc(-c2ccc(COc3cc(N)nc4[nH]nnc34)c(OC(F)(F)F)c2)cn1 [Example 288, 7-((4-(2-methoxypyrimidin-5-yl)-2-(trifluoromethoxy)benzyl)oxy)-3H-[1,2,3] triazolo[4,5-b]pyridin-5-amine]"
2,101 to 999,"Nc1cc(OCc2ccc(-c3ccccc3Cl)cc2)c2nn[nH]c2n1 [Example 109, 7-((2′-Chlorobiphenyl-4-yl)methoxy)-3H-[1,2,3]triazolo[4,5-b]pyridin-5-amine]"
3,1 to 100,"COC(=O)c1ccc(COc2cc(N)nc3[nH]nnc23)c(Cl)c1 [Example 194, Methyl 4-((5-amino-3H-[1,2,3]triazolo[4,5-b]pyridin-7-yloxy)methyl)-3-chlorobenzoate]"
4,101 to 999,"Nc1cc(OCc2c(F)cc(-n3ccnc3)cc2F)c2nn[nH]c2n1 [Example 279, 7-((2,6-difluoro-4-(1H-imidazol-1-yl)benzyl)oxy)-3H-[1,2,3]triazolo[4,5-b] pyridin-5-amine]"
5,1 to 100,"COc1ncc(-c2ccc(COc3cc(N)nc4[nH]nnc34)c(C#N)c2)cc1F [Example 323, 2-(((5-amino-3H-[1,2,3]triazolo[4,5-b]pyridin-7-yl)oxy)methyl)-5-(5-fluoro-6-methoxypyridin-3-yl)benzonitrile]"
6,101 to 999,Nc1cc(OCc2cc(C(=O)NC3CCC(O)CC3)ccc2F)c2nn[nH]c2n1 (centres unmarked) [Example 163]
7,1 to 100,"Nc1cc(OCc2ccccc2C(F)(F)F)c2nn[nH]c2n1 [Example 239, 7-((2-(Trifluoromethyl)benzyl)oxy)-3H-[1,2,3]triazolo[4,5-b]pyridin-5-amine]"
8,1 to 100,"N#Cc1ccc(-c2ccc(COc3cc(N)nc4[nH]nnc34)c(C#N)c2)cn1 [Example 325, 5-(4-(((5-amino-3H-[1,2,3]triazolo[4,5-b]pyridin-7-yl)oxy)methyl)-3-cyanophenyl) picolinonitrile]"
9,1 to 100,"CCOc1ccccc1COc1cc(N)nc2[nH]nnc12 [Example 128, 7-((2-Ethoxybenzyl)oxy)-3H-[1,2,3]triazolo[4,5-b]pyridin-5-amine]"
10,1 to 100,"Nc1cc(OCc2ccc(-c3ccc(O)nc3)cc2OC(F)(F)F)c2nn[nH]c2n1 [Example 307, 5-(4-(((5-amino-3H-[1,2,3]triazolo[4,5-b]pyridin-7-yl)oxy)methyl)-3-(trifluoromethoxy)phenyl)pyridin-2-ol]"
11,101 to 999,"Nc1cc(OCc2ccc(-c3ccccc3F)cc2)c2nn[nH]c2n1 [Example 114, 7-((2′-Fluorobiphenyl-4-yl)methoxy)-3H-[1,2,3]triazolo[4,5-b]pyridin-5-amine]"
12,101 to 999,"Nc1cc(OCc2ccc(-n3cnc4ccccc43)cc2OC(F)(F)F)c2nn[nH]c2n1 [Example 261, 7-((4-(1H-benzo[d]imidazol-1-yl)-2-(trifluoromethoxy)benzyl)oxy)-3H-[1,2,3] triazolo[4,5-b]pyridin-5-amine]"
13,1 to 100,"Nc1cc(OCc2ccc(-c3ccc(Cl)nc3)cc2OC(F)(F)F)c2nn[nH]c2n1 [Example 302, 7-((4-(6-chloropyridin-3-yl)-2-(trifluoromethoxy)benzyl)oxy)-3H-[1,2,3] triazolo[4,5-b]pyridin-5-amine]"
14,101 to 999,"CS(=O)(=O)c1cc(Cl)cc(COc2cc(N)nc3[nH]nnc23)c1 [Example 44, 7-(3-Chloro-5-(methylsulfonyl)benzyloxy)-3H-[1,2,3]triazolo[4,5-b]pyridin-5-amine]"
15,1 to 100,"Nc1cc(OCc2cc([N+](=O)[O-])ccc2Cl)c2nn[nH]c2n1 [Example 249, 7-((2-chloro-5-nitrobenzyl)oxy)-3H-[1,2,3]triazolo[4,5-b]pyridin-5-amine]"
16,1 to 100,"Nc1cc(OCc2c(F)ccc(-c3ccc(N4CCOCC4)nc3)c2Cl)c2nn[nH]c2n1 [Example 342, 7-((2-chloro-6-fluoro-3-(6-morpholinopyridin-3-yl)benzyl)oxy)-3H-[1,2,3]triazolo[4,5-b] pyridin-5-amine]"

row,SMILES,IC50 [nM]
1,"COc1ccccc1CNC(=O)c1ccc(COc2cc(N)nc3[nH]nnc23)c(Cl)c1 [Example 331, 4-((5-amino-3H-[1,2,3]triazolo[4,5-b]pyridin-7-yloxy)methyl)-3-chloro-N-(2-methoxybenzyl) benzamide]",1 to 100
